Molecules are shown by their SMILES.

Drawing on patent US10160755B2 (Plexxikon Inc., priority 2015, dated 2018), this text covers IC50 for 22 compounds.

The target of one assay is T1, FLT3-D835Y (Homo sapiens, UniProt P36888, D835Y).
T1 construct: purchased Invitrogen PV3967
T1 sequence (P36888 27-993 D835Y): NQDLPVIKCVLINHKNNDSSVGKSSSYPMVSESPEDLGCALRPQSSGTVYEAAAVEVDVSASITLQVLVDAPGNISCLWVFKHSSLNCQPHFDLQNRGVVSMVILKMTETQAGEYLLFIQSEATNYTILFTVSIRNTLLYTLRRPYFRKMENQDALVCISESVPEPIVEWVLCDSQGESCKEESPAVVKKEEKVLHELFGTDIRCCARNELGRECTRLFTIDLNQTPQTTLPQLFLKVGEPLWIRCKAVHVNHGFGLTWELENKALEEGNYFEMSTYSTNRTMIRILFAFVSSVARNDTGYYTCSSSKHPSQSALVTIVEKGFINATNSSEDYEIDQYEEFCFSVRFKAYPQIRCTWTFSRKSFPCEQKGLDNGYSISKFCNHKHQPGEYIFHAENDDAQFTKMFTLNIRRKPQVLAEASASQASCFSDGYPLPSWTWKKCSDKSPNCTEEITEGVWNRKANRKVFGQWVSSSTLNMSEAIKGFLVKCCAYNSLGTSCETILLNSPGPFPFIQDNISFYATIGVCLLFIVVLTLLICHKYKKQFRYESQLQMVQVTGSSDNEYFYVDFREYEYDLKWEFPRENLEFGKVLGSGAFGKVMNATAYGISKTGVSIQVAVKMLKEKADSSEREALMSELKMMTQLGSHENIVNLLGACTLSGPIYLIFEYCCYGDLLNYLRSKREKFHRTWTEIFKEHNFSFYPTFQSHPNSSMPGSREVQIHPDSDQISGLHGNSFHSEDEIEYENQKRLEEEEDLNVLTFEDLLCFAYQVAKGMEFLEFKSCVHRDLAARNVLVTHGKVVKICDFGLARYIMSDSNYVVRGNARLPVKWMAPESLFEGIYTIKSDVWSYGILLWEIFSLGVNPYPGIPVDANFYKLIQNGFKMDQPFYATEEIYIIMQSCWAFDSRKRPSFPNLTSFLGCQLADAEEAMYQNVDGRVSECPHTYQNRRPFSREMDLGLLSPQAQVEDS
Kind of assay: FLT3-D835Y biochemical kinase assay (AlphaScreen). An outline of the steps:
(§1)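 IC50 values reflect loss of AlphaScreen proximity signal (excitation 680 nm, emission 580 nm) from tyrosine phosphorylation of a biotinylated poly(Glu4-Tyr) substrate at 30 nM. ATP was 10 μM for the D835Y mutant and 100 μM for ITD. Detection used PY20 acceptor beads.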
A general note: Bead proximity is the source of the signal in Alpha formats.

In a further assay the target is T2, FLT3-ITD (Homo sapiens, UniProt P36888).
T2 construct: FLT3-ITD; Invitrogen #PV6190
T2 sequence (P36888 1-993): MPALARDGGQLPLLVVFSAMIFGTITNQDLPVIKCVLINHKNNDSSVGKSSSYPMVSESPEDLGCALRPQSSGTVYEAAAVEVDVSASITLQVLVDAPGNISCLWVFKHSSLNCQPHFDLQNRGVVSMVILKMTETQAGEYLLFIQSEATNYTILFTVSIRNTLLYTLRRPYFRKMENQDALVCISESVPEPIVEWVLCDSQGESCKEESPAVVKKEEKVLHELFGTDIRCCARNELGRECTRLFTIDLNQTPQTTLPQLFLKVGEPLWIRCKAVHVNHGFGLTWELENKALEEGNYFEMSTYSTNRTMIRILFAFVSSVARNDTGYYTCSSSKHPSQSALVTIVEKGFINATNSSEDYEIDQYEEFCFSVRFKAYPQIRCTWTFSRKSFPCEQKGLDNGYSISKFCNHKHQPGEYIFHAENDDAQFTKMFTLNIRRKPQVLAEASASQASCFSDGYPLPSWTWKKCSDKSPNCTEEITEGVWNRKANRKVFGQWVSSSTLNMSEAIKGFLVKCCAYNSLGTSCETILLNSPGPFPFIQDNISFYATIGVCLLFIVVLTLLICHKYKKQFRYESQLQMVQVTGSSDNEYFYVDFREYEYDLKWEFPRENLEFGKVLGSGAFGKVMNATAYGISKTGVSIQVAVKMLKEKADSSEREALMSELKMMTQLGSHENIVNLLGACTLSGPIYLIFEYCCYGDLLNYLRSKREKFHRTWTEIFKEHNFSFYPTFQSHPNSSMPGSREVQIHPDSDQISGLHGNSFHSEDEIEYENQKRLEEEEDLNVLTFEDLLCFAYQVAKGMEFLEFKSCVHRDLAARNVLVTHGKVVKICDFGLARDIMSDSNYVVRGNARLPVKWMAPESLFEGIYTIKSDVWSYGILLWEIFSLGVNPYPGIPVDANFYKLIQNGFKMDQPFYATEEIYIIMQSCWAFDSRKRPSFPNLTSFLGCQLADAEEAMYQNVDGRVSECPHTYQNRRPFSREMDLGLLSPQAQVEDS
Kind of assay: FLT3-ITD biochemical kinase assay (AlphaScreen). An outline of the steps:
as §1

Broadly, the IC50 is the concentration that gives 50% inhibition. For `Cc1cc(-c2cnc3[nH]cc(-c4ccc5ncn(C(C)(C)C)c5c4)c3n2)cnc1C#N` [P-355, 5-[7-(3-tert-butylbenzimidazol-5-yl)-5H-pyrrolo[2,3-b]pyrazin-2-yl]-3-methyl-pyridine-2-carbonitrile], the IC50 against FLT3-D835Y and against FLT3-ITD was 0.0001 to 1 µM each time.
Consider `CC(C)(C)n1cnc2ccc(-c3c[nH]c4ncc(-c5cccc(OC(F)(F)F)c5)nc34)cc21` [P-191, 7-(3-tert-butylbenzimidazol-5-yl)-2-[3-(trifluoromethoxy)phenyl]-5H-pyrrolo[2,3-b]pyrazine], for which the IC50 at FLT3-D835Y and at FLT3-ITD was 0.0001 to 1 µM in each case.
Turning to `CN1CCN(c2ncc(-c3cnc4[nH]cc(-c5ccc6ncn(C(C)(C)C)c6c5)c4n3)cn2)CC1` [P-349, 7-(3-tert-butylbenzimidazol-5-yl)-2-[2-(4-methylpiperazin-1-yl)pyrimidin-5-yl]-5H-pyrrolo[2,3-b]pyrazine], the IC50 on FLT3-D835Y and against FLT3-ITD was 0.0001 to 1 µM in each case.
With `COc1cnc2[nH]cc(-c3ccc4c(c3)N(C)CCO4)c2c1` [P-107, 6-(5-methoxy-1H-pyrrolo[2,3-b]pyridin-3-yl)-4-methyl-2,3-dihydro-1,4-benzoxazine], the IC50 at FLT3-D835Y and against FLT3-ITD was 0.0001 to 1 µM throughout.
As for `CCS(=O)(=O)Nc1cccc(-c2cnc3[nH]cc(-c4ccc5ncsc5c4)c3n2)c1` [P-169, N-[3-[7-(1,3-benzothiazol-6-yl)-5H-pyrrolo[2,3-b]pyrazin-2-yl]phenyl]ethanesulfonamide], the IC50 against FLT3-D835Y and against FLT3-ITD was 0.0001 to 1 µM in each case.
On to `COc1cc(-c2cnc3[nH]cc(-c4ccc5c(c4)N(CC(F)(F)F)CCO5)c3n2)ccn1` [P-188, 6-(2-(2-methoxypyridin-4-yl)-5H-pyrrolo[2,3-b]pyrazin-7-yl)-4-(2,2,2-trifluoroethyl)-3,4-dihydro-2H-benzo[b][1,4]oxazine], for which the IC50 against FLT3-D835Y and at FLT3-ITD was 0.0001 to 1 µM each time.
As for `COc1cc(-c2cnc3[nH]cc(-c4ccc5ncn(C(C)(C)C)c5c4)c3c2)cc(OC)n1` [P-196, 1-tert-butyl-6-[5-(2,6-dimethoxy-4-pyridyl)-1H-pyrrolo[2,3-b]pyridin-3-yl]benzimidazole], the IC50 on FLT3-D835Y and at FLT3-ITD was 0.0001 to 1 µM each time.
`COc1cccc(-c2cnc3[nH]cc(-c4ccc5ncsc5c4)c3n2)c1` [P-158, 6-[2-(3-methoxyphenyl)-5H-pyrrolo[2,3-b]pyrazin-7-yl]-1,3-benzothiazole]: the IC50 at FLT3-D835Y and at FLT3-ITD was 0.0001 to 1 µM throughout.
For `CC(C)(C)n1cnc2ccc(-c3c[nH]c4ncc(-c5cnc(NC6CC6)nc5)nc34)cc21` [P-362, 5-[7-(3-tert-butylbenzimidazol-5-yl)-5H-pyrrolo[2,3-b]pyrazin-2-yl]-N-cyclopropyl-pyrimidin-2-amine], the IC50 on FLT3-D835Y and on FLT3-ITD was 0.0001 to 1 µM each time.
As for `CC(C)(C)n1cnc2ccc(-c3c[nH]c4ncc(NS(=O)(=O)c5cccc(OC(F)(F)F)c5)cc34)cc21` [P-213, N-[3-(3-tert-butylbenzimidazol-5-yl)-1H-pyrrolo[2,3-b]pyridin-5-yl]-3-(trifluoromethoxy)benzenesulfonamide], the values for the IC50 against FLT3-D835Y and against FLT3-ITD were 1 to 10 µM and 0.0001 to 1 µM, respectively.
For the compound `COc1cc(-c2cnc3[nH]cc(-c4ccc5ncn(C6CCCNC6)c5c4)c3c2)ccn1` (centres unmarked) [P-138, 5-(2-methoxy-4-pyridyl)-3-[3-(3-piperidyl)benzimidazol-5-yl]-1H-pyrrolo[2,3-b]pyridine], the IC50 at FLT3-D835Y and against FLT3-ITD was 0.0001 to 1 µM in each case.
For the compound `COc1cnc2[nH]cc(-c3ccc4ncn(Cc5ccc(Cl)cc5)c4c3)c2c1` [P-111, 1-[(4-chlorophenyl)methyl]-6-(5-methoxy-1H-pyrrolo[2,3-b]pyridin-3-yl)benzimidazole], the IC50 against FLT3-D835Y and on FLT3-ITD was 0.0001 to 1 µM in each case.
On to `O=C(C1CC1)N1CC=C(c2cnc3[nH]cc(-c4ccc5ncn(C6CCCNC6)c5c4)c3n2)C1` (centres unmarked) [P-137, cyclopropyl-[3-[7-[3-(3-piperidyl)benzimidazol-5-yl]-5H-pyrrolo[2,3-b]pyrazin-2-yl]-2,5-dihydropyrrol-1-yl]methanone], for which the IC50 against FLT3-D835Y and at FLT3-ITD was 0.0001 to 1 µM throughout.
Regarding `CC(C)(C)n1cnc2ccc(-c3c[nH]c4ncc(-c5cnc(C#N)c(Cl)c5)nc34)cc21` [P-361, 5-[7-(3-tert-butylbenzimidazol-5-yl)-5H-pyrrolo[2,3-b]pyrazin-2-yl]-3-chloro-pyridine-2-carbonitrile], the IC50 at FLT3-D835Y and against FLT3-ITD was 0.0001 to 1 µM throughout.
On to `Cn1cnc2ccc(-c3c[nH]c4ncc(-c5cccc(S(=O)(=O)N6CCCC6)c5)nc34)cc21` [P-156, 7-(3-methylbenzimidazol-5-yl)-2-(3-pyrrolidin-1-ylsulfonylphenyl)-5H-pyrrolo[2,3-b]pyrazine], for which the IC50 against FLT3-D835Y and on FLT3-ITD was 0.0001 to 1 µM in each case.
Regarding `CC(C)(C)n1cnc2ccc(-c3c[nH]c4ncc(-c5ccc(F)nc5)nc34)cc21` [P-360, 7-(3-tert-butylbenzimidazol-5-yl)-2-(6-fluoro-3-pyridyl)-5H-pyrrolo[2,3-b]pyrazine], the IC50 against FLT3-D835Y and against FLT3-ITD was 0.0001 to 1 µM each time.
On to `CC(C)(C)n1cnc2ccc(-c3c[nH]c4ncc(-c5cnc(C6CC6)nc5)cc34)cc21` [P-340, 1-tert-butyl-6-[5-(2-cyclopropylpyrimidin-5-yl)-1H-pyrrolo[2,3-b]pyridin-3-yl]benzimidazole], for which the IC50 at FLT3-D835Y and on FLT3-ITD was 0.0001 to 1 µM each time.
With `COc1cnc2[nH]cc(-c3cnc4ncn(Cc5ccccc5)c4c3)c2c1` [P-143, 1-benzyl-6-(5-methoxy-1H-pyrrolo[2,3-b]pyridin-3-yl)imidazo[4,5-b]pyridine], the IC50 at FLT3-D835Y and against FLT3-ITD was 0.0001 to 1 µM in each case.
Consider `COc1cc(-c2cnc3[nH]cc(-c4ccc5ncn(C)c5c4)c3n2)cc(OC)n1` [P-157, 2-(2,6-dimethoxy-4-pyridyl)-7-(3-methylbenzimidazol-5-yl)-5H-pyrrolo[2,3-b]pyrazine], for which the IC50 against FLT3-D835Y and on FLT3-ITD was 0.0001 to 1 µM throughout.
Regarding `CC(C)(C)n1cnc2ccc(-c3c[nH]c4ncc(C#Cc5ccccc5)nc34)cc21` [P-142, 7-(3-tert-butylbenzimidazol-5-yl)-2-(2-phenylethynyl)-5H-pyrrolo[2,3-b]pyrazine], the IC50 on FLT3-D835Y and against FLT3-ITD was 0.0001 to 1 µM each time.
Take `CCCS(=O)(=O)Nc1cccc(-c2cnc3[nH]cc(-c4ccc5ncn(C)c5c4)c3n2)c1` [P-155, N-[3-[7-(3-methylbenzimidazol-5-yl)-5H-pyrrolo[2,3-b]pyrazin-2-yl]phenyl]propane-1-sulfonamide]: the IC50 against FLT3-D835Y and on FLT3-ITD was 0.0001 to 1 µM in each case.
In the case of `CN(C)c1ncc(-c2cnc3[nH]cc(-c4ccc5ncn(C(C)(C)C)c5c4)c3n2)cn1` [P-378, 5-[7-(3-tert-butylbenzimidazol-5-yl)-5H-pyrrolo[2,3-b]pyrazin-2-yl]-N,N-dimethyl-pyrimidin-2-amine], the IC50 at FLT3-D835Y and against FLT3-ITD was 0.0001 to 1 µM in each case.
